From US20240091149A1, “COMPOSITIONS AND METHODS FOR IMPROVING GASTROINTESTINAL ABSORPTION OF ELECTROLYTES” (IGH NATURALS, INC., priority 2020, published 2024)

System: HT-29-MTX intestinal cells
Test: IL-10 secretion by intestinal cells
Format: cell-based
Settings: cells treated with cisplatin alone; FIG. 3
From the text: IL-10 secretion peaked between 24-48 hrs and preceded mucin secretion (72-96 hr).

N.N.[Cl][Pt][Cl] [cisplatin]
IL-10 secretion: secreted more IL-10
